These results are taken from US20240238281A1, “PIPERAZINE DERIVATIVES AND APPLICATION THEREOF” (priority 2021, published 2024).

A short description of the series: Pharmacokinetic parameters in rat plasma. It counts as in vivo, SD rats. Particulars: SD. As for the experimental part:
4 healthy SD rats of 6-9 weeks old were selected and randomly divided into two groups, 2 rats in each group. One group was administered with the test compound via intravenous injection, with 5% DMSO+95% (a 10% HP-β-CD aqueous solution) as a solvent, and the other group was administered with the test compound by gavage, with a 50 mM citric acid buffer solution at pH=5 as a solvent. Plasma samples were collected from animals in both intravenous and intragastric groups at 0.083 hour, 0.25 hour, 0.5 hour, 1.0 hour, 2.0 hours, 4.0 hours, 6.0 hours, 8.0 hours and 24 hours after administration, respectively. Quantitative analysis of all biological samples was performed using an LC-MS/MS method, with WinNonlin™ Version 6.3 (Pharsight, Mountain View, CA) pharmacokinetic software, to calculate relevant pharmacokinetic parameters using a […] model linear logarithmic trapezoid method. AUCo-last represented an area under a plasma concentration time curve from a time point zero to a last time point where the concentration can be detected; p.o. represented oral administration; i.v. represented intravenous injection; T1/2 represented the half life; CL represented the clearance rate; Vd represented the apparent distribution volume; AUC0-last represented the area under the curve; Cmax represented the peak concentration; Tmax represented the peak time; and F % represented oral bioavailability.

Under “iv, i.v. 2 mg/kg”, `C[C@@H]1CN(C(=O)[C@@H]2CN(C3CCOCC3)C[C@H]2c2ccc(F)cc2F)C[C@H](C)N1c1ccc(F)cc1` (single isomer, unassigned) [Compound 7] showed an AUC(0-t) of 0.897 µM·h, a Vd of 8 L/kg, a clearance of 73 mL/min/kg and a half-life of 1.5 h. This compound returned a bioavailability (p.o. 5 mg/kg, oral bioavailability) of 37%. Also, under “po, p.o. 5 mg/kg”, the AUC(0-t) came to 0.796 µM·h, the Cmax turned out to be 195 nM and the Tmax stood at 1 h.
